The values that follow come from patent publication US20260274829A1, “NEW E3 UBIQUITIN LIGASE LIGAND, PROTEIN DEGRADATION AGENT AND USE THEREOF” (GLUETACS THERAPEUTICS (SHANGHAI) CO., LTD., priority 2023, published 2026).

In this assay the target is T1, human Cereblon WT GST-tagged protein (Homo sapiens, UniProt Q96SW2).
T1 construct: purchased CISBIO 64BDCRBNPEH
T1 sequence (Q96SW2 whole entry): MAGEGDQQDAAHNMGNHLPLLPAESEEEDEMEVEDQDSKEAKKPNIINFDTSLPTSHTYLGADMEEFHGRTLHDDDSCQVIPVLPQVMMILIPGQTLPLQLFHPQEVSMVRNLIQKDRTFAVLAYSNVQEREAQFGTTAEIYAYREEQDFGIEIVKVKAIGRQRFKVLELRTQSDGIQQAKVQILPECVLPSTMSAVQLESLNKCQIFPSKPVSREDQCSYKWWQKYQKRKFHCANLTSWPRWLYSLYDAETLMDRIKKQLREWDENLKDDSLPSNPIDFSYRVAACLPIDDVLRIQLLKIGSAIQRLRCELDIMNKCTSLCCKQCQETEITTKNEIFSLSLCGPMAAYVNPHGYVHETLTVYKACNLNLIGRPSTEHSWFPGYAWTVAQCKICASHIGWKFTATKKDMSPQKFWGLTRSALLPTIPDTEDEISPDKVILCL
The assay is described as follows: CRBN binding, HTRF CEREBLON BINDING kit. Conditions: CRBN binding, HTRF CEREBLON BINDING kit. The method in brief:
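HTRF competition in which test compounds displace a Thalidomide-Re tracer from GST-tagged human Cereblon WT, detected with a GST Eu antibody. Incubation lasted 3 hours at room temperature, with emission read at 620 and 665 nm. Inhibition rate was derived from 665/620 ratios relative to blank and solvent control wells.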
The molecule `CN(C)C(=O)c1cc2cnc(Nc3ccc(N4CCN(Cc5ccc(N6CCC(=O)NC6=O)cn5)CC4)cn3)nc2n1C1CCCC1` [GT-06342, 7-cyclopentyl-2-((5-(4-((5-(2,4-dioxotetrahydropyrimidin-1(2H)-yl)pyridin-2-yl)methyl)piperazin-1-yl)pyridin-2-yl)amino)-N,N-dimethyl-7H-pyrrolo[2,3-d]pyrimidine-6-carboxamide] had a half-maximal inhibitory concentration (IC50) of 1000 to 1900 nM. Molecule `Cc1ccc(-c2c(C)noc2C)cc1N(CC1CCN(Cc2ccc(N3CCC(=O)NC3=O)cn2)CC1)c1ccc(C2(C#N)CC2)cc1` [GT-06411, 1-(4-((5-(3,5-dimethylisoxazol-4-yl)-2-methylphenyl)((1-((5-(2,4-dioxotetrahydropyrimidin-1(2H)-yl)pyridin-2-yl)methyl)piperidin-4-yl)methyl)amino)phenyl)cyclopropane-1-carbonitrile] showed an IC50 of 500 to 1000 nM. Regarding `Cn1cc(-c2cc(S(C)(=O)=O)ccc2OCc2ccc(C3CCC(=O)NC3=O)cc2)c2cc[nH]c2c1=O` (stereo not shown) [GT-06415, 3-(4-((2-(6-methyl-7-oxo-6,7-dihydro-1H-pyrrolo[2,3-c]pyridin-4-yl)-4-(methylsulfonyl)phenoxy)methyl)phenyl)piperidine-2,6-dione], the IC50 is less than 500 nM. On to `Cn1cc(-c2cc(S(C)(=O)=O)ccc2OCc2ccc(N3CCC(=O)NC3=O)cn2)c2cc[nH]c2c1=O` [GT-06416, 1-(6-((2-(6-methyl-7-oxo-6,7-dihydro-1H-pyrrolo[2,3-c]pyridin-4-yl)-4-(methylsulfonyl)phenoxy)methyl)pyridin-3-yl)dihydropyrimidine-2,4(1H,3H)-dione], for which the 50% inhibitory concentration (IC50) fell in the range of 1000 to 1900 nM. The molecule `CN(C)C(=O)c1cc2cnc(Nc3ccc(N4CCC(N(C)Cc5ccc(C6CCC(=O)NC6=O)cc5)CC4)cn3)nc2n1C1CCCC1` (stereo not shown) [GT-06490, 7-cyclopentyl-2-((5-(4-((4-(2,6-dioxopiperidin-3-yl)benzyl)(methyl)amino)piperidin-1-yl)pyridin-2-yl)amino)-N,N-dimethyl-7H-pyrrolo[2,3-d]pyrimidine-6-carboxamide] came in with an IC50 of 500 to 1000 nM. For the molecule `CN(C)C(=O)c1cc2cnc(Nc3ccc(N4CCC(N(C)Cc5ccc(N6CCC(=O)NC6=O)cc5)CC4)cn3)nc2n1C1CCCC1` [GT-06491, 7-cyclopentyl-2-((5-(4-((4-(2,4-dioxotetrahydropyrimidin-1(2H)-yl)benzyl)(methyl)amino)piperidin-1-yl)pyridin-2-yl)amino)-N,N-dimethyl-7H-pyrrolo[2,3-d]pyrimidine-6-carboxamide], the IC50 fell in the range of 500 to 1000 nM. With `CN(C)C(=O)c1cc2cnc(Nc3ccc(N4CCC(N(C)Cc5cccc(N6CCC(=O)NC6=O)c5)CC4)cn3)nc2n1C1CCCC1` [GT-06492, 7-cyclopentyl-2-((5-(4-((3-(2,4-dioxotetrahydropyrimidin-1(2H)-yl)benzyl)(methyl)amino)piperidin-1-yl)pyridin-2-yl)amino)-N,N-dimethyl-7H-pyrrolo[2,3-d]pyrimidine-6-carboxamide] the figure was 1000 to 1900 nM; with `CN(C)C(=O)c1cc2cnc(Nc3ccc(N4CCC(N(C)Cc5ccc(N6CCC(=O)NC6=O)cn5)CC4)cn3)nc2n1C1CCCC1` [GT-06493, 7-cyclopentyl-2-((5-(4-(((5-(2,4-dioxotetrahydropyrimidin-1(2H)-yl)pyridin-2-yl)methyl)(methyl)amino)piperidin-1-yl)pyridin-2-yl)amino)-N,N-dimethyl-7H-pyrrolo[2,3-d]pyrimidine-6-carboxamide], 500 to 1000 nM. `CC(=O)c1c(C)c2cnc(Nc3ccc(N4CCN(Cc5ccc(C6CCC(=O)NC6=O)cc5)CC4)cn3)nc2n(C2CCCC2)c1=O` (stereo not shown) [GT-06575, 3-(4-((4-(6-((6-acetyl-8-cyclopentyl-5-methyl-7-oxo-7,8-dihydropyrido[2,3-d]pyrimidin-2-yl)amino)pyridin-3-yl)piperazin-1-yl)methyl)phenyl)piperidine-2,6-dione] yielded a concentration for half-maximal inhibition (IC50) of 500 to 1000 nM. Regarding `CC(=O)c1c(C)c2cnc(Nc3ccc(N4CCN(Cc5cccc(N6CCC(=O)NC6=O)c5)CC4)cn3)nc2n(C2CCCC2)c1=O` [GT-06577, 1-(3-((4-(6-((6-acetyl-8-cyclopentyl-5-methyl-7-oxo-7,8-dihydropyrido[2,3-d]pyrimidin-2-yl)amino)pyridin-3-yl)piperazin-1-yl)methyl)phenyl)dihydropyrimidine-2,4(1H,3H)-dione], the IC50 lay in the range of 1000 to 1900 nM. `CC(=O)c1c(C)c2cnc(Nc3ccc(N4CCN(Cc5ccc(N6CCC(=O)NC6=O)cn5)CC4)cn3)nc2n(C2CCCC2)c1=O` [GT-06578, 1-(6-((4-(6-((6-acetyl-8-cyclopentyl-5-methyl-7-oxo-7,8-dihydropyrido[2,3-d]pyrimidin-2-yl)amino)pyridin-3-yl)piperazin-1-yl)methyl)pyridin-3-yl)dihydropyrimidine-2,4(1H,3H)-dione] came in with an IC50 of 1000 to 1900 nM.

Turning to `CC(=O)c1c(C)c2cnc(Nc3ccc(N4CCC(N5CCN(Cc6ccc(C7CCC(=O)NC7=O)cc6)CC5)CC4)cn3)nc2n(C2CCCC2)c1=O` (stereo not shown) [GT-06659, 3-(4-((4-(1-(6-((6-acetyl-8-cyclopentyl-5-methyl-7-oxo-7,8-dihydropyrido[2,3-d]pyrimidin-2-yl)amino)pyridin-3-yl)piperidin-4-yl)piperazin-1-yl)methyl)phenyl)piperidine-2,6-dione], the 50% inhibitory concentration (IC50) lay in the range of 500 to 1000 nM. On to `Cc1nc2c(F)cc(-c3nc(Nc4ccc(CN5CCN(Cc6ccc(C7CCC(=O)NC7=O)cc6)CC5)cn4)ncc3F)cc2n1C(C)C` (stereo not shown) [GT-06664, 3-(4-((4-((6-((5-fluoro-4-(4-fluoro-1-isopropyl-2-methyl-1H-benzo[d]imidazol-6-yl)pyrimidin-2-yl)amino)pyridin-3-yl)methyl)piperazin-1-yl)methyl)phenyl)piperidine-2,6-dione], for which the IC50 lay in the range of 500 to 1000 nM.

For `Cc1nc2c(F)cc(-c3nc(Nc4ccc(CN5CCN(Cc6ccc(N7CCC(=O)NC7=O)cc6)CC5)cn4)ncc3F)cc2n1C(C)C` [GT-06665, 1-(4-((4-((6-((5-fluoro-4-(4-fluoro-1-isopropyl-2-methyl-1H-benzo[d]imidazol-6-yl)pyrimidin-2-yl)amino)pyridin-3-yl)methyl)piperazin-1-yl)methyl)phenyl)dihydropyrimidine-2,4(1H,3H)-dione], the IC50 was 1000 to 1900 nM. In the case of `Cc1nc2c(F)cc(-c3nc(Nc4ccc(CN5CCN(Cc6cccc(N7CCC(=O)NC7=O)c6)CC5)cn4)ncc3F)cc2n1C(C)C` [GT-06666, 1-(3-((4-((6-((5-fluoro-4-(4-fluoro-1-isopropyl-2-methyl-1H-benzo[d]imidazol-6-yl)pyrimidin-2-yl)amino)pyridin-3-yl)methyl)piperazin-1-yl)methyl)phenyl)dihydropyrimidine-2,4(1H,3H)-dione], the concentration for half-maximal inhibition (IC50) is less than 500 nM. In turn, `Cc1nc2c(F)cc(-c3nc(Nc4ccc(CN5CCN(Cc6ccc(N7CCC(=O)NC7=O)cn6)CC5)cn4)ncc3F)cc2n1C(C)C` [GT-06667, 1-(6-((4-((6-((5-fluoro-4-(4-fluoro-1-isopropyl-2-methyl-1H-benzo[d]imidazol-6-yl)pyrimidin-2-yl)amino)pyridin-3-yl)methyl)piperazin-1-yl)methyl)pyridin-3-yl)dihydropyrimidine-2,4(1H,3H)-dione] came in with an IC50 of 1000 to 1900 nM. For `Cc1nc2c(F)cc(-c3nc(Nc4ccc(N5CCC(N(C)Cc6ccc(C7CCC(=O)NC7=O)cc6)CC5)cn4)ncc3F)cc2n1C(C)C` (stereo not shown) [GT-06735, 3-(4-(((1-(6-((5-fluoro-4-(4-fluoro-1-isopropyl-2-methyl-1H-benzo[d]imidazol-6-yl)pyrimidin-2-yl)amino)pyridin-3-yl)piperidin-4-yl)(methyl)amino)methyl)phenyl)piperidine-2,6-dione], the IC50 fell in the range of 500 to 1000 nM. For `Cc1nc2c(F)cc(-c3nc(Nc4ccc(N5CCC(N6CCN(Cc7ccc(N8CCC(=O)NC8=O)cc7)CC6)CC5)cn4)ncc3F)cc2n1C(C)C` [GT-06739, 1-(4-((4-(1-(6-((5-fluoro-4-(4-fluoro-1-isopropyl-2-methyl-1H-benzo[d]imidazol-6-yl)pyrimidin-2-yl)amino)pyridin-3-yl)piperidin-4-yl)piperazin-1-yl)methyl)phenyl)dihydropyrimidine-2,4(1H,3H)-dione], the concentration for half-maximal inhibition (IC50) fell in the range of 500 to 1000 nM. Molecule `Cc1nc2c(F)cc(-c3nc(Nc4ccc(N5CCC(N6CCN(Cc7cccc(N8CCC(=O)NC8=O)c7)CC6)CC5)cn4)ncc3F)cc2n1C(C)C` [GT-06740, 1-(3-((4-(1-(6-((5-fluoro-4-(4-fluoro-1-isopropyl-2-methyl-1H-benzo[d]imidazol-6-yl)pyrimidin-2-yl)amino)pyridin-3-yl)piperidin-4-yl)piperazin-1-yl)methyl)phenyl)dihydropyrimidine-2,4(1H,3H)-dione] returned an IC50 of 500 to 1000 nM. `Cc1nc2c(F)cc(-c3nc(Nc4ccc(N5CCC(N6CCN(Cc7ccc(N8CCC(=O)NC8=O)cn7)CC6)CC5)cn4)ncc3F)cc2n1C(C)C` [GT-06741, 1-(6-((4-(1-(6-((5-fluoro-4-(4-fluoro-1-isopropyl-2-methyl-1H-benzo[d]imidazol-6-yl)pyrimidin-2-yl)amino)pyridin-3-yl)piperidin-4-yl)piperazin-1-yl)methyl)pyridin-3-yl)dihydropyrimidine-2,4(1H,3H)-dione] gave a 50% inhibitory concentration (IC50) of 500 to 1000 nM.

In turn, `Cc1nc2c(F)cc(-c3nc(Nc4ccc(N5CCC(N6CCN(Cc7cccc(NC8CCC(=O)NC8=O)c7)CC6)CC5)cn4)ncc3F)cc2n1C(C)C` (stereo not shown) [GT-06743, 3-((3-((4-(1-(6-((5-fluoro-4-(4-fluoro-1-isopropyl-2-methyl-1H-benzo[d]imidazol-6-yl)pyrimidin-2-yl)amino)pyridin-3-yl)piperidin-4-yl)piperazin-1-yl)methyl)phenyl)amino)piperidine-2,6-dione] showed an IC50 of 1000 to 1900 nM. With `Nc1nc(Nc2ccc(S(=O)(=O)N3CCN(Cc4ccc(C5CCC(=O)NC5=O)cc4)CC3)cc2)nn1C(=O)c1c(F)cccc1F` (stereo not shown) [GT-06750, 3-(4-((4-((4-((5-amino-1-(2,6-difluorobenzoyl)-1H-1,2,4-triazol-3-yl)amino)phenyl)sulfonyl)piperazin-1-yl)methyl)phenyl)piperidine-2,6-dione] the figure was 500 to 1000 nM.
